Earlier results, collected in patent publication US20040223951A1, “Combination therapy for cancer” (Schering Corporation, priority 2000, published 2004).

Columns and labels:
[1] = administered orally

In the case of `Cn1nnc2c(C(N)=O)ncn2c1=O` [Temozolomide, 3,4-dihydro-3-methyl-4-oxoimidazo-[5,1-d]1,2,3,4-tetrazin-8-carboximide], the “clinical response, % of patients with advanced melanoma” value (advanced melanoma; Journal of Clinical Oncology, Vol. 13, No. 4, 1995, pp. 910-913) is given as 21%, the “clinical responses, % of patients having advanced melanoma” value (advanced melanoma; Newlands ES, et al., Br J Cancer 65 (2) 287-291, 1992) is given as 17% and the bioavailability [1] is given as “approximately 100%”. The “plasma concentration of active metabolite MTIC versus conventional dosing” value (extended daily dosing of TMZ, Brock et al. Cancer Res. 1998;58:4363) was “higher plasma concentration of the active metabolite MTIC than conventional dosing” and the “plasma concentrations of MTIC versus DTIC” value (oral TMZ compared with IV DTIC) was “higher plasma concentrations of MTIC than IV administration of DTIC”.
